The values that follow are results of earlier work, collected in patent US20230056424A1, “PREVENTION OF THE CONVERSION OF PHARMACEUTICAL AGENTS INTO TOXIC N-NITROSAMINE COMPOUNDS” (ALFRED E. TIEFENBACHER (GMBH & CO. KG), priority 2021, published 2023).

Each structure is given as a SMILES string.

For this series the following is noted: standards established by the health authorities.

`O=NN1C[C@H]2C[C@@H](C1)c1cc3nccnc3cc12` [N-nitroso-varenicline]: the “maximum allowed daily intake” value is on record as 37 ng/day.
